# Experiments:
# cells = settings: Mus musculus, BV-2, 24 h
# Description: Antineuroinflammatory activity in mouse BV2 cells assessed as inhibition of LPS-induced NO production after 24 hrs in presence of LPS by Griess reaction based assay
# Mus musculus = organism: Mus musculus; assay: Cytotoxicity against mouse BV2 cells assessed as reduction in cell viability at antineuroinflammatory IC50 after 24 hrs in presence of LPS by MTT assay; assay type: toxicity, cell-based; settings: bv-2, 24 h
Structure (SMILES),IC50 (cells),Activity (Mus musculus)
COc1cc2c(c(OC)c1OC)-c1c(cc(OC)c(OC)c1OC)C[C@@](C)(O)[C@@H](C)C2,> 100 µM,–
O=Cc1c[nH]c2ccccc12 [3-FORMYLINDOLE],0.76 µM,Non-Toxic
COc1cc2c(c(OC)c1OC)-c1c(cc3c(c1OC)OCO3)C[C@H](C)[C@H](C)C2 [WUWEIZISU B],> 100 µM,–
CN(C)c1ccc(O)c2c1C[C@H]1C[C@H]3[C@H](N(C)C)C(O)=C(C(N)=O)C(=O)[C@@]3(O)C(O)=C1C2=O [MINOCYCLINE],35.8 µM,–
NC(=O)Cc1ccccc1,> 100 µM,–
O=c1cc[nH]c(=O)[nH]1 [URACIL],> 100 µM,–

# Now from value to compound, other results behind:
IC50 (cells),Structure (SMILES),Activity (Mus musculus)
> 100 µM,COc1cc([C@H]2Oc3c(OC)cc4ccc(=O)oc4c3O[C@@H]2CO)ccc1O [CLEOMISCOSIN A],–
> 100 µM,COc1cc2ccc(=O)oc2c(OC)c1O,–
1.22 µM,COc1ccc(Cc2ccc(OC)cc2)cc1,Non-Toxic
10.6 µM,COC(=O)Nc1ccc(C)c(NC(=O)OC)c1,Non-Toxic
> 100 µM,COc1cc([C@@H]2COc3c(c(OC)cc4ccc(=O)oc34)O2)ccc1O,–
> 100 µM,COc1cc2oc(=O)ccc2c(O)c1O,–
